Measured values as given in US20060183802A1, “Compositions and methods for treating amyotrophic lateral sclerosis (ALS)” (priority 2004, published 2006).
In brackets after ≈: the same amount, converted by molar mass.

Columns and labels:
[1] = tested on: SOD (wild type and A4V, G85R and G37R mutants); assay: Copper/H2O2-induced oxidative aggregation of demetallated SOD after Cys-111 modification, monitored by light scattering; type: biochemical, human
Description: Unmodified SOD aggregation. SOD aggregation of SOD with an umodified Cys-111 residue was achieved by mixing 10 μM SOD with 0.8 mM copper sulfate (CuSO4) and 10 mM hydrogen peroxide (H2O2) in 20 mM Tris at 37° C. (pH 7.4). SOD aggregation of SOD modified at the Cys-111 residue.
Modified (Blocked […] Residue) aggregation. Treatment with iodoacetate and DTNB was carried out at 0.73 mg/ml demetallated SOD, 20 mM Tris, 20 mM phosphate with 10 mM modifying reagent in each at pH 7.4 and room temperature for one hour. In the case of DTNB treatment, both protein solution and the buffer were nitrogen fused prior to the reaction. Modified SOD samples were then dialyzed against 20 mM Tris buffer at pH 7.8 in room temperature. All of the modified SOD samples were prepared fresh just before inducing oxidation with copper (0.8 mM) and hydrogen peroxide (10 mM).
Kinetic Studies of modified and unmodified SOD aggregation. To monitor the kinetics of aggregation, the SOD solution was equilibrated in a quartz cuvette at 37° C. for 5 min within the sample chamber of a Hitachi F-4500 fluorimeter, at which point a freshly made solution containing the CuSO4, H2O2, and Tris was added. Using a small stir bar, the solution was mixed for 5 s, and the light scattered at a 90° angle was immediately monitored for 1 h at an excitation and emission wavelengths of 350 with 2.5 nm slit width. […]

SOD = assay: In vitro oxidative aggregation of SOD in presence of orotate; type: biochemical, human
Description: The scope of the current study that led to the discovery of anti-aggregation effect of orotate was based the inventor's aggregation model involving the open dimers (FIG. 9) as discussed in Example 2.

[2] = according to MSDS; cited from earlier work
[3] = tested on: Cu/Zn superoxide dismutase; settings: rat liver, dietary administration; cited from earlier work
mouse models = settings: dietary administration; cited from earlier work
cardiomyopathic hamsters = settings: dietary administration; cited from earlier work

SMILES: O=C(O)c1cc(SSc2ccc([N+](=O)[O-])c(C(=O)O)c2)ccc1[N+](=O)[O-] [DTNB, dithionitro benzoic acid]
- aggregation of SOD after treatment with sulfhydryl blocking reagent ([1]; 10 mM modifying reagent, pH 7.4, one hour, then 0.8 mM copper, 10 mM H2O2, WT, A4V, G85R, G37R apo SOD): inhibited

SMILES: O=C(O)CI [iodoacetate]
- aggregation of SOD after treatment with sulfhydryl blocking reagent ([1]; pH 7.4): inhibited

SMILES: O=C(O)c1cc(=O)[nH]c(=O)[nH]1 [orotic acid]
- anti-aggregation activity across SOD variants (SOD; different variants of SOD with different extent of dimer opening): different level of anti-aggregation activity in different variants of SOD
- effect on in vitro oxidative aggregation of SOD (SOD; in vitro oxidative aggregation): inhibition of in vitro oxidative aggregation
- solubility in water [2]: 7 mM (≈ 1090 µg/mL)
- Cu/Zn superoxide dismutase mRNA level [3]: reduction
- SOD activity [3]: corresponding reduction
- memory and synaptic long-term potentiation (mouse models): improve memory and synaptic long-term potentiation
- conditions of cardiomyopathic hamsters (cardiomyopathic hamsters): improve
